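A five-concentration, 48-hour dose response in 96-well plates underlies each endpoint, interpolated linearly between surrounding concentrations. TGI marks complete inhibition of growth.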
Experiments:
Assay in all cases: NCI-60 cell line screen, 48 h
RXF 393 renal = test system: RXF 393 renal
HOP-62 NSCLC = test system: HOP-62 NSCLC
MALME-3M melanoma = test system: MALME-3M melanoma
EKVX NSCLC = test system: EKVX NSCLC
OVCAR-5 ovarian = test system: OVCAR-5 ovarian
SF-539 CNS = test system: SF-539 CNS
SNB-19 CNS = test system: SNB-19 CNS
MOLT-4 leukemia = test system: MOLT-4 leukemia
RPMI-8226 leukemia = test system: RPMI-8226 leukemia
M14 melanoma = test system: M14 melanoma
UO-31 renal = test system: UO-31 renal
KM20L2 colon = test system: KM20L2 colon
NCI-H23 lung = test system: NCI-H23 lung
OVCAR-8 ovarian = test system: OVCAR-8 ovarian
SNB-75 CNS = test system: SNB-75 CNS
A498 renal = test system: A498 renal
SN12C renal = test system: SN12C renal
UACC-257 melanoma = test system: UACC-257 melanoma
NCI-H522 lung = test system: NCI-H522 lung
COLO 205 colon = test system: COLO 205 colon
ACHN renal = test system: ACHN renal
786-0 renal = test system: 786-0 renal
KM12 colon = test system: KM12 colon
DMS 273 small cell lung = test system: DMS 273 small cell lung
OVCAR-3 ovarian = test system: OVCAR-3 ovarian
U251 CNS = test system: U251 CNS
A549 NSCLC = test system: A549 NSCLC
SNB-78 CNS = test system: SNB-78 CNS
CAKI-1 renal = test system: CAKI-1 renal
HCC-2998 colon = test system: HCC-2998 colon
OVCAR-4 ovarian = test system: OVCAR-4 ovarian
TK-10 renal = test system: TK-10 renal
UACC-62 melanoma = test system: UACC-62 melanoma
HOP-92 NSCLC = test system: HOP-92 NSCLC
XF 498 CNS = test system: XF 498 CNS
SK-MEL-2 melanoma = test system: SK-MEL-2 melanoma
M19-MEL melanoma = test system: M19-MEL melanoma
NCI-H460 lung = test system: NCI-H460 lung
IGROV1 ovarian = test system: IGROV1 ovarian
LXFL 529 NSCLC = test system: LXFL 529 NSCLC
SK-MEL-5 melanoma = test system: SK-MEL-5 melanoma
DMS 114 small cell lung = test system: DMS 114 small cell lung
HCT-15 colon = test system: HCT-15 colon
SF-268 CNS = test system: SF-268 CNS
CCRF-CEM leukemia = test system: CCRF-CEM leukemia
HCT-116 colon = test system: HCT-116 colon
LOX IMVI melanoma = test system: LOX IMVI melanoma
NCI-H226 lung = test system: NCI-H226 lung
K-562 leukemia = test system: K-562 leukemia
HL-60(TB) leukemia = test system: HL-60(TB) leukemia
DLD-1 colon = test system: DLD-1 colon
HOP-18 NSCLC = test system: HOP-18 NSCLC
SK-OV-3 ovarian = test system: SK-OV-3 ovarian
SF-295 CNS = test system: SF-295 CNS
SW-620 colon = test system: SW-620 colon
SK-MEL-28 melanoma = test system: SK-MEL-28 melanoma
SR leukemia = test system: SR leukemia
HT29 colon = test system: HT29 colon

Cc1cccc(-c2nnc3s/c(=C\c4ccc5c(c4)OCO5)c(=O)n23)c1
TGI (RXF 393 renal): > 100 µM
TGI (HOP-62 NSCLC): > 100 µM
TGI (MALME-3M melanoma): > 100 µM
TGI (EKVX NSCLC): > 100 µM
TGI (OVCAR-5 ovarian): > 100 µM
TGI (SF-539 CNS): > 100 µM
TGI (SNB-19 CNS): > 100 µM
TGI (MOLT-4 leukemia): > 100 µM
TGI (RPMI-8226 leukemia): > 100 µM
TGI (M14 melanoma): > 100 µM
TGI (UO-31 renal): > 100 µM
TGI (KM20L2 colon): > 100 µM
TGI (NCI-H23 lung): > 100 µM
TGI (OVCAR-8 ovarian): > 100 µM
TGI (SNB-75 CNS): > 100 µM
TGI (A498 renal): > 100 µM
TGI (SN12C renal): > 100 µM
TGI (UACC-257 melanoma): > 100 µM
TGI (NCI-H522 lung): > 100 µM
TGI (COLO 205 colon): > 100 µM
TGI (ACHN renal): > 100 µM
TGI (786-0 renal): > 100 µM
TGI (KM12 colon): > 100 µM
TGI (DMS 273 small cell lung): > 100 µM
TGI (OVCAR-3 ovarian): > 100 µM
TGI (U251 CNS): > 100 µM
TGI (A549 NSCLC): > 100 µM
TGI (SNB-78 CNS): > 100 µM
TGI (CAKI-1 renal): > 100 µM
TGI (HCC-2998 colon): > 100 µM
TGI (OVCAR-4 ovarian): > 100 µM
TGI (TK-10 renal): > 100 µM
TGI (UACC-62 melanoma): > 100 µM
TGI (HOP-92 NSCLC): > 100 µM
TGI (XF 498 CNS): > 100 µM
TGI (SK-MEL-2 melanoma): > 100 µM
TGI (M19-MEL melanoma): > 100 µM
TGI (NCI-H460 lung): > 100 µM
TGI (IGROV1 ovarian): > 100 µM
TGI (LXFL 529 NSCLC): > 100 µM
TGI (SK-MEL-5 melanoma): > 100 µM
TGI (DMS 114 small cell lung): > 100 µM
TGI (HCT-15 colon): > 100 µM
TGI (SF-268 CNS): > 100 µM
TGI (CCRF-CEM leukemia): > 100 µM
TGI (HCT-116 colon): > 100 µM
TGI (LOX IMVI melanoma): > 100 µM
TGI (NCI-H226 lung): > 100 µM
TGI (K-562 leukemia): > 100 µM
TGI (HL-60(TB) leukemia): > 100 µM
TGI (DLD-1 colon): > 100 µM
TGI (HOP-18 NSCLC): > 100 µM
TGI (SK-OV-3 ovarian): > 100 µM
TGI (SF-295 CNS): > 100 µM
TGI (SW-620 colon): > 100 µM
TGI (SK-MEL-28 melanoma): > 100 µM

CC(=O)N(C)c1ccc2ncccc2c1[N+](=O)[O-]
TGI (RXF 393 renal): > 100 µM
TGI (HOP-62 NSCLC): > 100 µM
TGI (SR leukemia): > 100 µM
TGI (MALME-3M melanoma): > 100 µM
TGI (EKVX NSCLC): > 100 µM
TGI (OVCAR-5 ovarian): > 100 µM
TGI (SF-539 CNS): > 100 µM
TGI (SNB-19 CNS): > 100 µM
TGI (MOLT-4 leukemia): > 100 µM
TGI (RPMI-8226 leukemia): > 100 µM
TGI (M14 melanoma): > 100 µM
TGI (UO-31 renal): > 100 µM
TGI (KM20L2 colon): > 100 µM
TGI (NCI-H23 lung): > 100 µM
TGI (OVCAR-8 ovarian): > 100 µM
TGI (SNB-75 CNS): > 100 µM
TGI (A498 renal): > 100 µM
TGI (SN12C renal): > 100 µM
TGI (UACC-257 melanoma): > 100 µM
TGI (ACHN renal): > 100 µM
TGI (786-0 renal): > 100 µM
TGI (KM12 colon): > 100 µM
TGI (DMS 273 small cell lung): > 100 µM
TGI (OVCAR-3 ovarian): > 100 µM
TGI (A549 NSCLC): > 100 µM
TGI (SNB-78 CNS): > 100 µM
TGI (CAKI-1 renal): > 100 µM
TGI (HCC-2998 colon): > 100 µM
TGI (OVCAR-4 ovarian): > 100 µM
TGI (HT29 colon): > 100 µM
TGI (TK-10 renal): > 100 µM
TGI (UACC-62 melanoma): > 100 µM
TGI (HOP-92 NSCLC): > 100 µM
TGI (XF 498 CNS): > 100 µM
TGI (SK-MEL-2 melanoma): > 100 µM
TGI (M19-MEL melanoma): > 100 µM
TGI (NCI-H460 lung): > 100 µM
TGI (IGROV1 ovarian): > 100 µM
TGI (LXFL 529 NSCLC): > 100 µM
TGI (SK-MEL-5 melanoma): > 100 µM
TGI (DMS 114 small cell lung): > 100 µM
TGI (HCT-15 colon): > 100 µM
TGI (SF-268 CNS): > 100 µM
TGI (CCRF-CEM leukemia): > 100 µM
TGI (HCT-116 colon): > 100 µM
TGI (LOX IMVI melanoma): > 100 µM
TGI (NCI-H226 lung): > 100 µM
TGI (K-562 leukemia): > 100 µM
TGI (HL-60(TB) leukemia): > 100 µM
TGI (DLD-1 colon): > 100 µM
TGI (HOP-18 NSCLC): > 100 µM
TGI (SF-295 CNS): > 100 µM
TGI (SW-620 colon): > 100 µM
TGI (SK-MEL-28 melanoma): > 100 µM

CCOC(=O)C(Cc1ccc([N+](=O)[O-])cc1)NC(=O)CC1c2ccccc2-c2ccccc21 (stereo not given)
TGI (RXF 393 renal): 41.6 µM
TGI (HOP-62 NSCLC): > 100 µM
TGI (SR leukemia): > 100 µM
TGI (MALME-3M melanoma): 42.3 µM
TGI (EKVX NSCLC): > 100 µM
TGI (SF-539 CNS): 77.4 µM
TGI (SNB-19 CNS): > 100 µM
TGI (MOLT-4 leukemia): > 100 µM
TGI (RPMI-8226 leukemia): > 100 µM
TGI (M14 melanoma): 57.9 µM
TGI (UO-31 renal): > 100 µM
TGI (KM20L2 colon): > 100 µM
TGI (NCI-H23 lung): > 100 µM
TGI (OVCAR-8 ovarian): > 100 µM
TGI (SNB-75 CNS): 68.8 µM
TGI (A498 renal): > 100 µM
TGI (SN12C renal): > 100 µM
TGI (UACC-257 melanoma): 91.5 µM
TGI (NCI-H522 lung): > 100 µM
TGI (COLO 205 colon): > 100 µM
TGI (ACHN renal): 45.1 µM
TGI (786-0 renal): > 100 µM
TGI (KM12 colon): > 100 µM
TGI (DMS 273 small cell lung): > 100 µM
TGI (OVCAR-3 ovarian): > 100 µM
TGI (U251 CNS): > 100 µM
TGI (A549 NSCLC): > 100 µM
TGI (SNB-78 CNS): 65.3 µM
TGI (HCC-2998 colon): > 100 µM
TGI (OVCAR-4 ovarian): > 100 µM
TGI (HT29 colon): > 100 µM
TGI (TK-10 renal): > 100 µM
TGI (UACC-62 melanoma): > 100 µM
TGI (HOP-92 NSCLC): 56.5 µM
TGI (XF 498 CNS): 53.6 µM
TGI (SK-MEL-2 melanoma): > 100 µM
TGI (M19-MEL melanoma): 38.9 µM
TGI (NCI-H460 lung): > 100 µM
TGI (IGROV1 ovarian): > 100 µM
TGI (LXFL 529 NSCLC): > 100 µM
TGI (DMS 114 small cell lung): > 100 µM
TGI (HCT-15 colon): > 100 µM
TGI (SF-268 CNS): > 100 µM
TGI (CCRF-CEM leukemia): > 100 µM
TGI (HCT-116 colon): > 100 µM
TGI (LOX IMVI melanoma): > 100 µM
TGI (NCI-H226 lung): > 100 µM
TGI (K-562 leukemia): > 100 µM
TGI (HL-60(TB) leukemia): > 100 µM
TGI (DLD-1 colon): > 100 µM
TGI (HOP-18 NSCLC): > 100 µM
TGI (SK-OV-3 ovarian): > 100 µM
TGI (SF-295 CNS): > 100 µM
TGI (SW-620 colon): > 100 µM
TGI (SK-MEL-28 melanoma): > 100 µM

Source: PubChem BioAssay (NCI)
